# According to US20240216476A1, “COMBINATION OF BITTER RECEPTOR AGONIST AND GUT-SIGNALING COMPOUND” (AARDVARK THERAPEUTICS, INC., priority 2021, published 2024):
# Where “and” joins values, the source holds several entries; their conditions need not be identical. Equal values may be shown once. Entries after “also recorded” stand apart in the source; their conditions may differ. Read-outs that look alike come from different tables or passages of the source. Marks after values point to notes of the source that are not given here.
# Legend:
# [1] = in vivo; cited from earlier work
# [2] = in vivo; cited from earlier work; remark: listed apart in the source
# [3] = pig, in vivo; cited from earlier work
# [4] = Appetite suppression effect of DA in animals; format: in vivo
# Text: Thus, twice daily dosing is preferred for abrogation of appetite throughout the day. […] Therefore, the preferred dosing for MetS treatment is QD.
# [5] = tested on: high fat diet induced obese (DIO) mouse model; assay: 4-week study of DA, liraglutide or their combination in high fat diet induced obese (DIO) mice (Example 2); format: in vivo
# Experimental: After arrival at the testing facility, all animals were acclimated to the vivarium for a period no less than 3 days and placed on a 60% Fat Rodent Diet (D12492; Research Diets), 12:12 dark/light cycle and group housed, 2-3 in hepa-filtered cages. All treatments were continued for four weeks. During the study period, gross observation (animal behavior and clinical signs) was conducted, and body weight measurement was performed three times per week for each animal. At the end of the study, all animals were fasted overnight before measurements were taken for serum levels of glucose, insulin, hemoglobin A1c (HbA1c), low-density lipoprotein (LDL) cholesterol, high-density lipoprotein (HDL) cholesterol, triglyceride (TG), and bile acid (BA). Statistical analysis of data was performed using one tail Student's t-test on Excel.
# [6] = tested on: AMLN-diet induced mice (fatty liver disease/NASH model); format: in vivo; details: in words
# Text: This Example provides the results obtained from an in vivo mouse model of fatty liver disease treatment to investigate the therapeutic effect of DA on the treatment of NASH versus positive control semaglutide (a GLP-1 agonist marketed drug for lowering HbA1c). This study used a positive control semaglutide, a vehicle control, study drug DA and a combination of semaglutide and DA. Mouse strain (B6 mice) was used, and the animals were already adults (23 weeks old) when the study began because the animals were already fed an AMLN diet for 17 weeks prior to the study being initiated. The study dose began at 75 mg/kg BID.
# The study included 3 groups of 10 mice each, (A) vehicle control with distilled water by gavage BID, (B) DA by gavage BID, and (C) semaglutide […] sc QD. Body weights and changes were measured 3× per week. Serum metabolic markers (blood glucose, blood insulin, HbA1c, HDL, LDL triglycerides and bile acids) were measured at beginning of dosing (baseline) and end of study. At the end of the study, histopathology of liver samples and serum levels of inflammatory biomarkers (IL-6, TNFα, CK-18 and TGF-β) were evaluated. Histopathology was performed blindly with a scoring scale according to NAFLD Activity Score and Fibrosis Score according to Table 13. Table 14 identifies the kits and equipment used to measure serum parameters.
# [7] = tested on: high-fat diet-induced obese (DIO) mice; format: in vivo; details: in words
# Experimental: This Example provides the results from an in vivo study of denatonium acetate and sitagliptin in high-fat diet-induced obese (DIO) mice. C57BL/6NTac mice (at least 12 weeks of age) were fed with a high fat diet. All mice were dosed orally by gavage as (a) Vehicle group (N=15) dosed with distilled water BID, (b) DA group (N=15) dosed at 75 mg/kg (denatonium weight) BID; (c) sitagliptin group (N=15) dosed by gavage with 10 mg/kg QD; and (d) DA+ sitagliptin group (N=15) treated with DA at 75 mg/kg (denatonium based weight) BID and sitagliptin at 10 mg/kg by gavage QD. The groups were dosed for 8 weeks followed by a 5-7 day […] period. Body weight and body weight changes were measured three times per week. Serum biomarker levels for blood glucose (after fasting 6-8 hours), blood insulin, percentage of blood HvA1c, HDL, LDL, total triglycerides (TG), total cholesterol (TC) and bile acid were measured twice during the study at day 28 and at the end (day 56) of the study. Cumulative food intake and water consumption for each animal was measured.
# [8] = tested on: C57Bl/6J mice fed with high-fat diet; assay: DA in C57Bl/6J mice fed with high-fat diet, 8 weeks (Table 11); format: in vivo, mouse
# Text: Similarly, Table 11 provides a comparison of denatonium acetate (DA) with DPP-4 inhibitors in similar ob/ob mice model. The data for the DPP-4 inhibitors was obtained from Am. J. Physiol. Endocrinol. Metab. 2011; 300(2); E410-E421. Biochim. Biophys. Acta Gen. Subj. 2018; 1862(3):403-413. PLOS One. 2012; 7(6):e38744; and Aging Cell. 2019; 18(2):e12883.
# [9] = tested on: gut peptide hormones GLP-1, GLP-2 and PYY; assay: Phase 1 clinical trial of DA: gut peptide hormones before and one hour after a single oral dose (Example 3); format: in vivo, human; details: in words, single dose DA 240 mg tablet vs placebo
# Experimental: This Example provides data of three gut peptide hormones from a phase 1 clinical trial of denatonium acetate after a single dose of DA at 240 mg in a tablet in the formulation disclosed herein. The subjects were either placebo or 240 mg DA and blood samples were taken just prior to dosing and one hour after oral dosing.
# ob/ob mice = assay: DA in ob/ob mice fed with high-fat diet, 8 weeks (Table 10); format: in vivo, mouse; details: DA 50 mg/kg BID for 8 weeks
# Text: The data for the DPP-4 inhibitors was obtained from J. Clin. Biochem. Nutr. 2015; 57(3):244-53. Acta Pharmacol. Sin. 2012; 33(8): 1013-22. J. Pharmacol. Exp. Ther. 2012; 342(1): 71-80; and Eur. J. Pharmacol. 2008; 588(2-3):325-32.
# [10] = human, in vivo, po
# Text: Accordingly, the gut peptide hormone data in both the in vivo studies in the examples herein and the phase 1 clinical trial data in Example 3 show synergy for the treatment and/or management of glucagon-related diseases, disorders or conditions, various indications. […] The clinical data also corroborated the DIO mouse data (Example 2). Yet, the marketers of GLP-1 agonists (like those available from Novo Nordisk, Lilly) claim only GLP-1 is important for both diabetes and weight loss. Also, DPP-4 is an enzyme that degrades GLP-1 and PYY to give both of those hormones short half-lives. Accordingly, in some embodiments herein, a DPP-4 inhibitor is used as part of the API combination.
# Therefore, both the pharmacokinetic data in a clinical trial (Example 3) for DA and the pharmacokinetic data published for commercially-marketed sitagliptin, support non-cumulative toxicity risk. Accordingly, DPP-4i drugs and the denatonium salts listed herein are an effective oral combination for the treatment of obesity.
# For sitagliptin as a single agent, the current guidelines indicate a daily dose of 100 mg PO QD (notwithstanding for those with renal impairment, recommended doses can be as low as 25 mg to 50 mg PO QD). […] In view of DA's pharmacokinetics (substantial gut restriction) and relatively non-toxic nature, the optimal dose ranges can be safely adjusted higher. […]
# [11] = each animal, end of study (Day 31), DA 75 mg/kg PO BID, liraglutide 200 μg/kg SC BID, 4-week dosing
# [12] = group mean, end of study (Day 31), DA 75 mg/kg PO BID, liraglutide 200 μg/kg SC BID, 4-week dosing
# [13] = in words, vs vehicle, Day 31, DA 75 mg/kg PO BID, liraglutide 200 μg/kg SC BID
# [14] = in words, Day 31, 4-week dosing
compound,measurement,setting,value
O=C1[C@H](CC[C@H](O)c2ccc(F)cc2)[C@@H](c2ccc(O)cc2)N1c1ccc(F)cc1 [Ezetimibe],reduction of LDL cholesterol,[1],about 18%
PYY: gut peptide hormone released from L-cells,half-life,[2],9 to 14 min
PYY (3-36): DPP-4 cleaved form of the gut peptide hormone PYY,half-life,[3],< 30 min
"CC(=O)[O-].CC[N+](CC)(CC(=O)Nc1c(C)cccc1C)Cc1ccccc1 [DA, denatonium acetate]",duration of observed appetite suppression effect,[4],about 8 hours
same,Body Weight Gain,[5]; [11],10.1 g and 6.7 g and 7.2 g (3×) and 9.6 g (2×) and 7.4 g and 5.2 g and 7 g and 8.1 g and 6.9 g and 11.2 g and 4.5 g and 7.5 g
same,Serum TG Level,[5]; [11],13.06 mmol/L and 13.49 mmol/L and 11.69 mmol/L and 13.35 mmol/L and 18.18 mmol/L and 14.27 mmol/L and 15.38 mmol/L and 12.93 mmol/L and 15.46 mmol/L and 19.24 mmol/L and 11.73 mmol/L and 15.13 mmol/L and 13.72 mmol/L and 13.59 mmol/L and 15.48 mmol/L
same,"Body Weight Gain, Mean",[5]; [12],7.69 g
same,"Serum TG Level, Mean",[5]; [12],14.45 mmol/L
same,serum BA level,"[5]; in words, vs vehicle control, Day 31, 4-week dosing",significant increase in serum BA level
same,Body Weight Gain,[5]; [13],significantly reduced
same,Serum TG Level,[5]; [13],significantly decreased serum TG level
same,serum HbA1c level,[5]; [14],did not show significant effect
same,serum LDL level,[5]; [14],no significant difference in serum LDL level
same,serum glucose level,[5]; [14],significantly decreased serum glucose level
same,serum insulin level,[5]; [14],considerably decreased serum insulin level
same,NAFLD Activity Score based on blinded histopathologic review,"[6]; 12 weeks, DA 75 then 50 mg/kg BID by gavage, semaglutide 10 mmol/kg sc QD",significantly improved NAFLD Activity Score
same,body weight and body weight change,"[6]; 12 weeks, DA 75 then 50 mg/kg BID, semaglutide 10 mmol/kg sc QD",remarkable effect on body weight
same,HDLs,[6]; end of study,significantly decreased
same,LDLs,[6]; end of study,significantly decreased
same,TGs,[6]; end of study,significantly decreased
same,fasting blood glucose levels,"[7]; vs vehicle controls, day 28 and day 56",significantly decreased fasting blood glucose levels
same,high-density lipoprotein (HDL) levels,"[7]; vs vehicle controls, day 56 (FIG. 22B)",significantly decreased high-density lipoprotein (HDL) levels
same,weight loss,[7]; 56-day study summary,significant weight loss; also recorded: statistically significant reduction of weight in the DA group versus the sitagliptin group
same,effect on body weight (relative body weight percentage and relative body weight change),"[7]; DA 75 mg/kg BID, sitagliptin 10 mg/kg QD by gavage, 8 weeks",much greater effect on body weight
same,effect on body weight,[7]; day 56,significant effect on body weight
same,"translationally relevant biomarkers (blood glucose, HbA1C, insulin, triglycerides, LDL cholesterol, total cholesterol)",[7]; relative to sitagliptin alone,superior benefit relative to sitagliptin alone
same,Control-adjusted Percent Change in Body Weight Gain,[8]; DA 75 mg/kg BID for 8 weeks,−33.9%*
same,Control-adjusted Percent Change in Fasting Blood Glucose,[8]; DA 75 mg/kg BID for 8 weeks,−5.3%
same,Control-adjusted Percent Change in GLP-1 Level,[8]; DA 75 mg/kg BID for 8 weeks,+27.5%*
same,Control-adjusted Percent Change in Insulin Level,[8]; DA 75 mg/kg BID for 8 weeks,−42.9%
same,Control-adjusted Percent Change in Lipid Levels: LDL,[8]; DA 75 mg/kg BID for 8 weeks,−18.3% in LDL
same,Control-adjusted Percent Change in HbA1c Level,"[8]; DA 75 mg/kg BID, at the end of Week 4",−3.7%* (at the
same,percent change for GLP-1 between time 0 and one hour after oral dosing,[9],the difference was significant
same,GLP-2 gut peptide hormone,[9]; one hour after dosing,trend for GLP-2 gut peptide hormone increase
same,PYY gut peptide hormone,[9]; one hour after dosing,trend for PYY gut peptide hormone increase
same,Control-adjusted Percent Change in Fasting Blood Glucose,ob/ob mice,−29.3%*
same,Control-adjusted Percent Change in HbA1c Level,ob/ob mice,+0.8%
same,Control-adjusted Percent Change in Insulin Level,ob/ob mice,+4.3%
same,Control-adjusted Percent Change in LDL Level,ob/ob mice,−27.5%*
same,Control-adjusted Percent Change in TG Level,ob/ob mice,−21.2%*
same,gut-restricted,[10],~99%
same,safe dosing in phase 1 clinical trial,[10],safely dosed to 240 mg PO BID
